The text below walks through data of patent publication US20110178134A1, “Novel phenyl-substituted imidazolidines, process for preparation thereof, medicaments comprising said compounds and use thereof” (SANOFI-AVENTIS, priority 2008, published 2011).

Read-outs that look alike come from different tables or passages of the source.

Assay [1] addresses human cannabinoid receptor 1 (hCB1R) (Homo sapiens, UniProt P21554). The assay is described as follows: Binding to human cannabinoid receptor 1 (hCB1R), [3H]-SR141716A displacement. The protocol:
Binding to Human Cannabinoid Receptor 1 (hCB1R):
Test compounds: The compounds (3 μl, 10 mM, 100% DMSO), pipetted into 96-well PP microtiter plates, were diluted with 27 μl of 100% DMSO (dimethyl sulfoxide). Proceeding from this solution, further 3-fold dilution steps were undertaken by transferring […] in each case to a new PP microtiter plate and adding a further 20 μl of 100% DMSO. In each case 6 μl of these solutions were transferred into new 96-well PP microtiter plates and made up with 144 μl of assay buffer. The end concentrations ranged from 10 μM to 0.005 μM.
Negative control: AM 251, dissolved in assay buffer with 1% DMSO, was added to the dilution series in the microtiter plates as a control. The end concentration was 1 μM.
Blank control: assay buffer with 1% DMSO was added to the dilution series of the microtiter plates as a blank control.
Summary of the Assay Parameters:
High control: ^3H binding without addition of the compound
Low control: ^3H binding in the presence of 1 μM AM 251
The values were calculated using the corrected raw data.
The values reported were obtained as average values of a double determination. The IC50 values were calculated from the measurements with the program Xlfit, formula 205. Ki values were obtained from the IC50 and Kd values utilizing the Cheng-Prusoff equation: […]
Literature: Cheng, Y.-C., and Prusoff, W. H. (1973) Biochem. Pharmacol 22, 3099-3108

Assay [2] has as its target T1, human androgen receptor (hAR) (Homo sapiens, UniProt P10275, T878A).
T1 construct: for the preparation of cytosolic receptor protein, the androgen-sensitive human prostate adenocarcinoma cell line LNCaP was used; endogenous in cells; host or cells: LNCaP (human prostate adenocarcinoma) cell cytosol fraction
T1 sequence (P10275 1-920 T878A): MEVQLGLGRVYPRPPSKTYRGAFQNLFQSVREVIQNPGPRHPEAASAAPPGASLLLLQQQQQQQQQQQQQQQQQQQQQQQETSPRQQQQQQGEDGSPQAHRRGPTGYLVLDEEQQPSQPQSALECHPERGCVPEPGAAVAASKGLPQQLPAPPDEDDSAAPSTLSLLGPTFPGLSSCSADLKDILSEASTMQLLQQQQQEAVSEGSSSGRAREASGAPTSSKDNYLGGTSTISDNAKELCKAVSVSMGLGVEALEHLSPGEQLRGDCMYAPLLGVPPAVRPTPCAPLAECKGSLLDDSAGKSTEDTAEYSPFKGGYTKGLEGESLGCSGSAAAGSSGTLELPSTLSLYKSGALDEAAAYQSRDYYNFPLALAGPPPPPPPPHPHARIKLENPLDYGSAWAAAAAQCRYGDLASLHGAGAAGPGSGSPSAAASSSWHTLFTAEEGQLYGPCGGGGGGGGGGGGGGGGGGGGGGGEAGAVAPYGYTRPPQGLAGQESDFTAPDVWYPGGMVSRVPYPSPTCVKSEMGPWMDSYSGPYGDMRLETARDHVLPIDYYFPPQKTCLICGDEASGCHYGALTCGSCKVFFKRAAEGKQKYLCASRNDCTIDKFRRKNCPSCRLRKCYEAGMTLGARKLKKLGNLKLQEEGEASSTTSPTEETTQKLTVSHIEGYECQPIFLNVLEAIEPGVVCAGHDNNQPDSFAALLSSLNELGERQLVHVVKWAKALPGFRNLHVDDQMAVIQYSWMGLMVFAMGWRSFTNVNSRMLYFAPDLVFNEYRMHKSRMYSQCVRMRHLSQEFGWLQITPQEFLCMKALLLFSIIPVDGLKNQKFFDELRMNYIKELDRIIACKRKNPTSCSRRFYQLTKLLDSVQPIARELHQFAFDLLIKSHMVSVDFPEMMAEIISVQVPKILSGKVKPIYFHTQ
The assay is described as follows: Binding assay with human androgen receptor, [3H]methyltrienolone, LNCaP cytosol. As to conditions: for inhibition at 10 µM / inhibition at 1 µM: inhibition of [3H]methyltrienolone binding; for inhibition at 10 µM: compound 10 μM; for inhibition at 1 µM: compound 1 μM. The protocol: Binding Assay with Human Androgen Receptor:
The binding assays on the androgen receptor were conducted according to the method of D. T. Zava et al. (1979) (“Androgen Receptor Assay with [^3H]Methyltrienolone (R1881) in the Presence of Progesterone Receptor”, Endocrinology, 104, 1007-1012). The radioactive ligand used for the binding measurement was [^3H]methyltrienolone and the reference substance was the same compound in unmarked (=nonradioactive) form. To determine the unspecific proportion of binding, 1 μM mibolerone was used. In a departure from the method cited, for the preparation of cytosolic receptor protein, the androgen-sensitive human prostate adenocarcinoma cell line LNCaP was used. For the analysis, aliquots of a cell cytosol fraction (proceeding from 10^6 cells per analysis point) were incubated, in a buffer in the presence or absence of test substance, with 0.5 nM [^3H]methyltrienolone at 4° C. for 24 hours (25 mM HEPES/Tris, 1 mM EDTA, 10 mM Na2MoO4, 2 mM DTT, 10% glycerol; pH 7.4). The samples were then mixed with 400 μl each of an activated carbon suspension and the mixtures were centrifuged (10 minutes, 8000×g). Supernatants were withdrawn and mixed with 5 ml each of scintillation cocktail, and the radioactivity of the samples was measured in a scintillation counter. Specific ligand binding to the receptors was calculated as the difference between total binding and the unspecific binding in the presence of an excess of nonmarked ligand. End results were represented as percent specific binding compared to the binding of control substance.
The strength of the binding to the human androgen receptor is expressed as percent inhibition of the binding of [^3H]methyltrienolone to the human androgen receptor. The concentration of the compounds examined is 1 μM or 10 μM. The greater the numerical value of “percent inhibition at 1 or 10 μM”, the stronger is the binding of the test substance to the human androgen receptor. Alternatively, the Ki value is reported; the greater this value compared to the Ki value based on the binding to the hCB1R, the lower is the binding to the hAR.

The mark [3] stands for this setting: CHO-K1/cannabinoid CB1 protein, 0.5 nM [3H]-SR141716A, Cheng-Prusoff, read-out: hCB1R, binding Ki.

Sequence of human cannabinoid receptor 1 (hCB1R) (P21554 whole entry): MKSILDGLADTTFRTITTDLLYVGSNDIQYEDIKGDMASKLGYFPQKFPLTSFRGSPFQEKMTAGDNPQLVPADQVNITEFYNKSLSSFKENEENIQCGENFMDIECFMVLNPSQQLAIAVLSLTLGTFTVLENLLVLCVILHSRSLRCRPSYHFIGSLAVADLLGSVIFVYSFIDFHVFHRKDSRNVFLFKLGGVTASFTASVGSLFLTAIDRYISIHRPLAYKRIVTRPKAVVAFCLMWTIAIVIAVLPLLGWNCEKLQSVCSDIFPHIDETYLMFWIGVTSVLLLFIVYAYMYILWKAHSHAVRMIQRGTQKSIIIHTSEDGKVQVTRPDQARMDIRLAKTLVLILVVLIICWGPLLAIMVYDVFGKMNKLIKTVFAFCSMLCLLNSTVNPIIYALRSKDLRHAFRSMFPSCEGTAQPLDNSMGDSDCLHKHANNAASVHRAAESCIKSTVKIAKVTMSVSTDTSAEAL

With `CC1(C)C(=O)N(c2ccc(C#N)c(C(F)(F)F)c2)C(=O)N1Cc1ccc(C(F)(F)F)cc1` [4-[4,4-dimethyl-2,5-dioxo-3-(4-trifluoromethylbenzyl)-imidazolidin-1-yl]-2-trifluoromethylbenzonitrile, reference compound], the results for the Ki in assay [1] and in assay [2] (read-out: Ki value based on binding to the human androgen receptor) were 0.076 µM and 0.096 µM, respectively.

On to `CC1(C)C(=O)N(c2ccc(C#N)c(C(F)(F)F)c2)C(=O)N1Cc1cc(C(F)(F)F)cc(C(F)(F)F)c1` [Example 1, 4-[3-(3,5-bis(trifluoromethyl)benzyl)-4,4-dimethyl-2,5-dioxoimidazolidin-1-yl]-2-trifluoromethylbenzonitrile], for which the Ki in assay [1] worked out at 0.004 µM. This compound showed an inhibition at 10 µM in assay [2] of 26%.

On to `CC1(C)C(=O)N(c2ccc(C#N)c(C(F)(F)F)c2)C(=O)N1Cc1ccc(OC(F)(F)F)cc1` [Example 2, 4-[4,4-dimethyl-2,5-dioxo-3-(4-trifluoromethoxybenzyl)imidazolidin-1-yl]-2-trifluoromethylbenzonitrile], for which, in assay [1] (setting [3]), the Ki stood at 0.2 µM. Also, in assay [2], testing at 1 µM gave an inhibition of 20%.

Turning to `CC1(C)C(=O)N(c2ccc(C#N)c(C(F)(F)F)c2)C(=O)N1Cc1cccc(C(F)(F)F)c1` [Example 3, 4-[4,4-dimethyl-2,5-dioxo-3-(3-trifluoromethylbenzyl)imidazolidin-1-yl]-2-trifluoromethylbenzonitrile], the Ki in assay [1] (setting [3]) was 0.127 µM. For the same compound, 1 µM produced 54% inhibition in assay [2].

In the case of `CC1(C)C(=O)N(c2ccc(C#N)c(C(F)(F)F)c2)C(=O)N1Cc1ccc(Cl)nc1` [Example 5, 4-[3-(6-chloropyridin-3-ylmethyl)-4,4-dimethyl-2,5-dioxoimidazolidin-1-yl]-2-trifluoromethylbenzonitrile], the Ki in assay [1] amounted to 0.025 µM. Besides, in assay [2], the inhibition at 1 µM worked out at 86%.

With `CC1(C)C(=O)N(c2ccc(C#N)c(C(F)(F)F)c2)C(=O)N1Cc1ccc(C(F)(F)F)nc1` [Example 6, 4-[4,4-dimethyl-2,5-dioxo-3-(6-trifluoromethylpyridin-3-ylmethyl)-imidazolidin-1-yl]-2-trifluoromethylbenzonitrile], the Ki in assay [1] worked out at 0.011 µM. In assay [2], this compound displayed an inhibition at 1 µM of 84%.

`CC1(C)C(=O)N(c2ccc(F)c(C(F)(F)F)c2)C(=O)N1Cc1ccc(C(F)(F)F)nc1` [Example 7, 3-(4-fluoro-3-trifluoromethylphenyl)-5,5-dimethyl-1-(6-trifluoromethyl-pyridin-3-ylmethyl)imidazolidine-2,4-dione]: in assay [1] (setting [3]), the Ki turned out to be 0.205 µM. In assay [2], this compound registered an inhibition at 1 µM of 47%.

In the case of `CC1(C)C(=O)N(c2ccc(Cl)c(C(F)(F)F)c2)C(=O)N1Cc1ccc(C(F)(F)F)nc1` [Example 8, 3-(4-chloro-3-trifluoromethylphenyl)-5,5-dimethyl-1-(6-trifluoromethyl-pyridin-3-ylmethyl)imidazolidine-2,4-dione], the Ki in assay [1] (setting [3]) came out at 0.227 µM. Also, in assay [2], the inhibition at 1 µM amounted to 53%.

For the compound `CC1(C)C(=O)N(c2ccc(F)c(C(F)(F)F)c2)C(=O)N1Cc1cc(C(F)(F)F)cc(C(F)(F)F)c1` [Example 9, 1-(3,5-bis(trifluoromethyl)benzyl)-3-(4-fluoro-3-trifluoromethylphenyl)-5,5-dimethylimidazolidine-2,4-dione], the Ki in assay [1] (setting [3]) was determined as 0.295 µM. Also, the inhibition at 10 µM in assay [2] is 3%.

Turning to `CC1(C)C(=O)N(c2ccc(Cl)c(C(F)(F)F)c2)C(=O)N1Cc1cc(C(F)(F)F)cc(C(F)(F)F)c1` [Example 10, 1-(3,5-bis(trifluoromethyl)benzyl)-3-(4-chloro-3-trifluoromethylphenyl)-5,5-dimethylimidazolidine-2,4-dione], the Ki in assay [1] was 0.081 µM. In assay [2], the inhibition at 1 µM came out at 3%.

In assay [1], `CC1(C)C(=O)N(c2ccc(C#N)c(C(F)(F)F)c2)C(=O)N1Cc1cccc(S(F)(F)(F)(F)F)c1` [Example 11, 4-[4,4-dimethyl-2,5-dioxo-3-(3-pentafluorosulfanylbenzyl)imidazolidin-1-yl]-2-trifluoromethylbenzonitrile] had a Ki of 0.017 µM. The compound further came in with an inhibition at 1 µM in assay [2] of 39%.

For the compound `CC1(C)C(=O)N(c2ccc(C#N)c(C(F)(F)F)c2)C(=O)N1Cc1ccc(OCc2ccccc2)c(OCc2ccccc2)c1` [Example 33, 4-[3-(3,4-bis(benzyloxy)benzyl)-4,4-dimethyl-2,5-dioxoimidazolidin-1-yl]-2-trifluoromethylbenzonitrile], the Ki in assay [1] was 0.026 µM; in assay [2] (reported instead of % inhibition in table 5, read-out: hAR, Ki) it was over 1 µM.

In assay [1], `CC1(C)C(=O)N(c2ccc(C#N)c(C(F)(F)F)c2)C(=O)N1Cc1ccccc1Oc1ccccc1` [Example 34, 4-[4,4-dimethyl-2,5-dioxo-3-(2-phenoxybenzyl)imidazolidin-1-yl]-2-trifluoromethylbenzonitrile] yielded a Ki of 0.006 µM. For the same compound, the inhibition at 1 µM in assay [2] came out at 30%.

Turning to `CC1(C)C(=O)N(c2ccc(Cl)c(C(F)(F)F)c2)C(=O)N1Cc1ccc(OCc2ccccc2)c(OCc2ccccc2)c1` [Example 37], in assay [1] (setting [3]), the Ki was 0.219 µM. Further, 10 µM produced 4% inhibition in assay [2].

In the case of `CC1(C)C(=O)N(c2ccc(F)c(C(F)(F)F)c2)C(=O)N1Cc1ccccc1Oc1ccccc1` [Example 44, 3-(4-fluoro-3-trifluoromethylphenyl)-5,5-dimethyl-1-(2-phenoxybenzyl)imidazolidine-2,4-dione], the Ki in assay [1] (setting [3]) worked out at 0.1 µM. Moreover, in assay [2], the inhibition at 10 µM worked out at 15%.

Take `CC1(C)C(=O)N(c2ccc(F)c(C(F)(F)F)c2)C(=O)N1Cc1ccc(F)cc1NS(N)(=O)=O` [Example 52, N-{5-fluoro-2-[3-(4-fluoro-3-trifluoromethylphenyl)-5,5-dimethyl-2,4-dioxoimidazolidin-1-ylmethyl]phenyl}sulfamide]: the Ki in assay [1] stood at 0.041 µM. The inhibition at 1 µM in assay [2] was determined as 52%.
